Measurements as given in article PMC10291553, “Exploring Structure–Activity Relationships in Photodynamic Therapy Anticancer Agents Based on Ir(III)-COUPY Conjugates” (Journal of Medicinal Chemistry, 2023).
Values joined by “and” are separate entries in the source; they are usually repeats but may differ in a detail not shown here. Identical values can stand only once. Like-named read-outs stand apart in the source and are kept apart here.

Tests used:
A2780cis cells = assay: Photo- and cytotoxic activity determination (MTT), A2780cis cells, normoxia or hypoxia; type: cell-based; conditions: for Partial inhibition (% of cell growth inhibition with respect to untreated controls), Hypoxia / Partial inhibition (% of cell growth inhibition with respect to untreated controls), Normoxia: 250 μM, 2 h incubation in the dark, 48 h drug-free recovery; for Hypoxia PI (phototherapeutic index) / Normoxia PI (phototherapeutic index): dark tested up to 250 μM; for A2780cis PI (phototherapeutic index), IC50 dark/IC50 irradiated: dark tested up to 100 μM
Outline: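 Dark and light IC50 values come from MTT viability (A570) after 1 h compound exposure in the dark, then 1 h under 520 nm light at 1.5 mW/cm^2 or continued darkness, and 48 h drug-free recovery. Phototherapeutic index is dark/light IC50. A2780cis were kept resistant with 1 μM cisplatin every second passage.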

A2780 = assay: Photo- and cytotoxic activity determination (MTT), A2780 cells; type: cell-based; conditions: normoxia; for A2780 PI (phototherapeutic index), IC50 dark/IC50 irradiated: 520 nm, dark tested up to 100 μM; for IC50: 48 h drug-free medium
Source text: (§1) Having shown that the Ir(III)-COUPY conjugates can sensitize both type I and II ROS through spectroscopic techniques and readily internalize into living cells, their photocytotoxicity was screened in various cancer cell lines. This screening included two representative melanoma cell lines (human A375 and […] human SK-MEL-28) and cancer cells with resistance to the clinical drug cisplatin. For the latter, both sensitive and cisplatin-resistant ovarian cancer cells (A2780 and A2780cis) as well as HeLa cells, which also show a degree of chemoresistance to the platinum anticancer drug in vitro,[54] were used. For the determination of dark and light cytotoxicity, dose–response curves were assayed from both conditions to provide the correspondent IC50 values, which correspond to the concentration needed for inhibition of cell growth by 50%. Phototherapeutic index (PI) was calculated as the ratio of dark to light IC50 value for each compound.
(§2) A375, HeLa, and SK-MEL-28 cells were cultured in Dulbecco’s modified Eagle medium (DMEM) supplemented with 10% FBS, L-glutamine, and 1% penicillin–streptomycin. A2780 and A2780cis cells were grown in RPMI-1640 cell medium supplemented with 10% fetal bovine serum (FBS) and 2 mM L-glutamine. Acquired resistance to cisplatin in the A2780cis cell line was maintained by adding cisplatin 1 μM to culture medium every second passage. Cells were cultured in a humidified incubator at 310 K with 5% CO2 atmosphere and subcultured two or three times a week with appropriate densities and were confirmed to be mycoplasma-free using a standard Hoechst DNA staining method.
(§3) A2780, A2780cis, HeLa, A375, and SK-MEL-28 cells were maintained at logarithmic growth-phase and cultured in 96-well plates at a density of 5000 cells/well in complete medium for 24 h at 310 K, 5% CO2 in a humidified incubator. For hypoxia experiments, a hypoxia condition was set up by Tissue Culture Service at University of Murcia using nitrogen (N2) to displace O2 down to a minimum of 2% in a Forma Steri-Cycle i160 incubator (Thermo Fisher Scientific). Serial dilutions of the compounds were added at the final concentrations in the range of 0–100 μM in a final volume of 100 μL per well. A light-based treatment schedule was performed as follows: 1 h incubation with the compounds in the dark, followed by 1 h incubation under irradiation conditions by placing the Photoreactor EXPO-LED from Luzchem (Canada) fitted with green lamps (final light intensity applied of 1.5 mW/cm^2 at λmax = 520 nm) inside the CO2 incubator. All the cell culture plates subjected to light irradiation included untreated controls to verify that cell viability was not affected by light. Then, treatment-containing media was removed, and fresh media was added for a 48 h cell recovery period; the temperature throughout the experiment remained at 310 K. Dark control samples were placed in the same dark conditions and then kept incubated for 1 h in the dark in the humidified CO2 incubator. Medium was then aspirated by suction, cells were loaded with 50 μL of MTT solution (1 mg/mL) for additional 4 h and then removed, and 50 μL of DMSO was added to solubilize the purple formazan crystals formed in active cells. The absorbance was measured at 570 nm using a microplate reader (FLUOstar Omega), and the IC50 values were calculated based on the inhibitory rate curves using the following equation [drawing 4] 4 where I represents the percentage inhibition of viability observed, Imax is the maximal inhibitory effect, IC50 is the concentration that inhibits 50% of maximal growth, C is the concentration of the treatment, and n is the slope of the semi-logarithmic dose–response sigmoidal curves. The non-linear fitting was performed using SigmaPlot 14.0 software. All experiments were performed in three independent studies with n = 3 replicates per concentration level. For a detailed phototoxicity procedure, ref ([43]) includes technical explanations.

HeLa = assay: Photo- and cytotoxic activity determination (MTT), HeLa cells; type: cell-based; conditions: normoxia; for HeLa PI (phototherapeutic index), IC50 dark/IC50 irradiated: 520 nm, dark tested up to 100 μM; for IC50: 48 h drug-free medium
Source text: as §1, §2, §3

A375 = assay: Photo- and cytotoxic activity determination (MTT), A375 cells; type: cell-based, human; conditions: normoxia; for A375 PI (phototherapeutic index), IC50 dark/IC50 irradiated: 520 nm, dark tested up to 100 μM; for IC50: 48 h drug-free medium
Source text: as §1, §2, §3

[1] = A2780cis, hypoxia 2% O2, 520 nm
[2] = A2780cis, hypoxia 2% O2, dark, tested up to 250 μM, read-out: Hypoxia Dark IC50
[3] = A2780cis, normoxia 21% O2, 520 nm
[4] = A2780cis, normoxia 21% O2, dark, tested up to 250 μM, read-out: Normoxia Dark IC50
[5] = hypoxia, 520 nm, read-out: A2780cis Light 520 nm IC50 (microM) Hypoxia
[6] = hypoxia, dark, read-out: A2780cis Dark IC50 (microM) Hypoxia
[7] = normoxia, 1 h incubation + 1 h green light 520 nm, 1.5 mW cm^–2, 48 h drug-free medium, read-out: A2780cis light IC50
[8] = normoxia, dark, up to 250 microM, read-out: A2780cis Dark IC50 (microM) Normoxia
[9] = normoxia, kept in the dark, tested up to 100 μM, 2 h treatment, 48 h drug-free medium, read-out: A2780cis dark IC50
[10] = 1 h incubation + 1 h green light 520 nm, 1.5 mW cm^–2, read-out: A2780 light IC50
[11] = kept in the dark, 2 h treatment, read-out: A2780 dark IC50
[12] = 1 h incubation + 1 h green light 520 nm, 1.5 mW cm^–2, read-out: HeLa light IC50
[13] = kept in the dark, 2 h treatment, read-out: HeLa dark IC50
[14] = 1 h incubation + 1 h green light 520 nm, 1.5 mW cm^–2, read-out: A375 light IC50
[15] = kept in the dark, 2 h treatment, read-out: A375 dark IC50

SMILES	Partial inhibition (% of cell growth inhibition with respect to untreated controls), Hypoxia (A2780cis cells; A2780cis, hypoxia)	Partial inhibition (% of cell growth inhibition with respect to untreated controls), Normoxia (A2780cis cells; A2780cis, normoxia)	Hypoxia PI (phototherapeutic index) (A2780cis cells; [1])	IC50 (A2780cis cells; [2])	Normoxia PI (phototherapeutic index) (A2780cis cells; [3])	IC50 (A2780cis cells; [4])	IC50 (A2780cis cells; [5])	IC50 (A2780cis cells; [6])	A2780cis PI (phototherapeutic index), IC50 dark/IC50 irradiated (A2780cis cells; normoxia, 520 nm)	IC50 (A2780cis cells; [7])	IC50 (A2780cis cells; [8])	IC50 (A2780cis cells; [9])	A2780 PI (phototherapeutic index), IC50 dark/IC50 irradiated (A2780)	IC50 (A2780; [10])	IC50 (A2780; [11])	HeLa PI (phototherapeutic index), IC50 dark/IC50 irradiated (HeLa)	IC50 (HeLa; [12])	IC50 (HeLa; [13])	A375 PI (phototherapeutic index), IC50 dark/IC50 irradiated (A375)	IC50 (A375; [14])	other results
CCCCn1c2[n+](c3cc(C(=O)NCCCNC(=O)C[n+]4ccc(/C(C#N)=C5/C=C(C)c6ccc(N(CC)CC)cc6O5)cc4)ccc31)[Ir-3]13([c]4ccccc4-c4[nH]c5ccccc5[n+]41)([c]1ccccc1-c1[nH]c4ccccc4[n+]13)[n+]1c-2ccc2ccccc21 [3a]	49 ± 4%	58 ± 7%	> 65.8 and > 66	> 250 µM	> 357.1 and > 357	> 250 µM	3.8 ± 0.3 µM	> 250 µM	> 143	0.7 ± 0.06 µM	> 250 µM	> 100 µM	> 94	1.07 ± 0.07 µM	> 100 µM	> 12	8.6 ± 0.7 µM	> 100 µM	> 6	18 ± 3 µM	PI (phototherapeutic index), blue light (A2780cis cells; A2780cis, 465 nm): > 52.6; IC50 (A2780cis cells; A2780cis, 1 h incubation + 1 h blue light 465 nm, 5 mW/cm2, 48 h drug-free, read-out: 465 nm IC50): 1.9 µM; IC50 (A375; [15]): > 100 µM
CCCCn1c2[n+](c3cc(C(=O)NC[C@H]4CC[C@H](C(=O)NCCCNC(=O)C[n+]5ccc(/C(C#N)=C6/C=C(C)c7ccc(N(CC)CC)cc7O6)cc5)CC4)ccc31)[Ir-3]13([c]4ccccc4-c4[nH]c5ccccc5[n+]41)([c]1ccccc1-c1[nH]c4ccccc4[n+]13)[n+]1c-2ccc2ccccc21 [3e]	12 ± 3%	18 ± 1%	> 147.1 and > 147	> 250 µM	> 268.8 and > 269	> 250 µM	1.7 ± 0.3 µM	> 250 µM	> 108	0.93 ± 0.04 µM	> 250 µM	> 100 µM	> 53	1.9 ± 0.2 µM	> 100 µM	> 11	9.3 ± 0.8 µM	> 100 µM	> 5	19 ± 3 µM	IC50 (A375; [15]): > 100 µM
CCCCn1c2[n+](c3cc(C(=O)OC)ccc31)[Ir-3]13([c]4ccccc4-c4[nH]c5ccccc5[n+]41)([c]1ccccc1-c1[nH]c4ccccc4[n+]13)[n+]1c-2ccc2ccccc21 [2a]	56 ± 6%	62 ± 4%	> 22.7	> 250 µM	> 71.4	> 250 µM	11 ± 2 µM	> 250 µM	> 29	3.5 ± 0.4 µM	> 250 µM	> 100 µM	> 25	4 ± 1 µM	> 100 µM	> 1.3	75 ± 6 µM	> 100 µM	> 48	2.1 ± 0.3 µM	IC50 (A375; [15]): > 100 µM
